Results published in patent publication US11396517B1, “Exo-aza spiro inhibitors of menin-MLL interaction” (Janssen Pharmaceutica NV, priority 2017, dated 2022).
Read-outs that look alike come from different tables or passages of the source.

Key:
menin = biological target: T1, menin (Homo sapiens, UniProt O00255, T541A); test: Menin/MLL homogenous time-resolved fluorescence (HTRF) assay; assay type: binding; conditions: location 2; read-out: (2) location 2 Menin HTRF assay (IC50 (nM))
T1 construct: Menin (a.a. 1-610-6×his tag)
T1 sequence (O00255 with tags, fused parts or gaps T541A): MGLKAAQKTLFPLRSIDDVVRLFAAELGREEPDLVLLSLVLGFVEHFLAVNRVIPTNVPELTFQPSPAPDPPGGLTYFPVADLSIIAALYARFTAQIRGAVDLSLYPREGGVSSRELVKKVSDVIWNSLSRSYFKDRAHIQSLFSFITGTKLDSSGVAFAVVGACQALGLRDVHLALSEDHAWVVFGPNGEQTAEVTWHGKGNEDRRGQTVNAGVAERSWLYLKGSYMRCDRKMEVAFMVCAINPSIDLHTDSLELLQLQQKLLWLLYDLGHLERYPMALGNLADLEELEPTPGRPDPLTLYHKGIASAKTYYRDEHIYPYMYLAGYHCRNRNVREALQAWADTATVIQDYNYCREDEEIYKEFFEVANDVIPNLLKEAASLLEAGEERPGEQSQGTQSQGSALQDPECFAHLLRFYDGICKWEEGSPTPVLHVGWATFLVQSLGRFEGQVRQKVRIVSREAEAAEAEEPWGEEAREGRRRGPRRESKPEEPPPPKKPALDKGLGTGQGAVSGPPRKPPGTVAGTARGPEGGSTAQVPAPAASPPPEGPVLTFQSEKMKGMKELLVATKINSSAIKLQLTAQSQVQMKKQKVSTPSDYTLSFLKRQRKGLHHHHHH
Summary of the method: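 Terbium-labeled menin (aa 1-610, His-tagged; […]) preincubated 5 min with compound, then 75 nM FITC-MBM1 peptide for 15 min, ambient, Tris pH 7.5, 0.5% DMSO. HTRF 520/490 ratio; 11-point 3-fold titration; IC50 from % inhibition fit.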

MV-4-11 = test: Proliferation assay B (spheroid assay) MV-4-11; assay type: cell-based, human; conditions: MV-4-11 cells, confluence at day 8, absolute IC50, read-out: (3b) Spheroid assay MV-4--11 (IC50(μM)) Assay B
Procedure: 3b) Proliferation Assay B
The anti-proliferative effect of menin/MLL protein/protein interaction inhibitor test compounds was assessed in human leukemia cell lines. The cell lines MV-4-11 and MOLM14 harbor MILL translocations and express the MILL fusion proteins MLL-AF4 and MLL-AF9, respectively, as well as the wildtype protein from the second allele. […] K562 was used as a control cell line containing two MLL wildtype alleles in order to exclude compounds that display general cytotoxic effects.
MV-4-11 and MOLM14 were cultured in RPMI-1640 (Sigma Aldrich) supplemented with 10% fetal bovine serum (HyClone), 2 mM L-glutamine (Sigma Aldrich) and 50 μg/ml gentamycin (Gibco). K562 were propagated in RPMI-1640 (Sigma Aldrich) supplemented with 20% fetal bovine serum (HyClone), 2 mM L-glutamine (Sigma Aldrich) and 50 μg/ml gentamycin (Gibco).
In order to assess the anti-proliferative effects, 1,500 MV-4-11, 300 MOLM14 cells or 750 K562 cells were seeded in 200 μl media per well in 96-well round bottom, ultra-low attachment plates (Costar, catalogue number 7007). Cell seeding numbers were chosen based on growth curves to ensure linear growth throughout the experiment. Test compounds were added at different concentrations and the DMSO content was normalized to 0.3%. Cells were incubated for 8 d at 37° C. and 5% CO2. Spheroid like growth was measured in real-time by live-cell imaging (IncuCyteZOOM, Essenbio, 4× objective) acquiring images at day 8. Confluence (%) as a measure of spheroid size was determined using an integrated analysis tool.
In order to determine the effect of the test compounds over time, the confluence in each well as a measure of spheroid size, was calculated. Confluence […] at the beginning of the experiment (t=0) was used as baseline for the calculation.
Absolute IC50 values were calculated as percent change in confluence as follows:
LC=Low Control: cells treated with 1 μM of the cytotoxic agent staurosporin
HC=High Control: Mean confluence (%) (DMSO treated cells) % Effect=100−(100*(Sample−LC)/(HC−LC))
To determine the IC50 a curve is fitted to the plot of % Effect vs Log 10 compound concentration using a sigmoidal fit with a variable slope and fixing the maximum to 100% and the minimum to 0%.

MOLM14 = test: Proliferation assay B (spheroid assay) MOLM14; assay type: cell-based, human; conditions: MOLM14 cells, confluence at day 8, absolute IC50, read-out: (3b) Spheroid assay MOLM14 (IC50(μM)) Assay B
Summary of the method: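 Leukemia cells grown as spheroids in ultra-low-attachment round-bottom wells with compound at 0.3% DMSO for 8 d at 37 °C. Confluence imaged at day 8 as spheroid size, normalized between DMSO and 1 μM staurosporine controls; absolute IC50 from sigmoidal fit with bounds fixed at 0 and 100%.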

Cc1nc(N2CCC3(CC(Nc4ccc(CC#N)cc4)C3)C2)c2cc(CC(F)(F)F)sc2n1 (mixture of isomers) [Compound 404]
IC50 (menin): 16.4 nM | IC50 (MV-4-11; Homo sapiens, MV4-11, 192 h): > 3.75 µM | IC50 (MOLM14; Homo sapiens, MOLM-14, 192 h): > 3.75 µM

CNC(=O)c1ccc(NC2CC3(CCN(c4ncnc5sc(CC(F)(F)F)cc45)C3)C2)cc1C#N (mixture of isomers) [Compound 422]
IC50 (menin): 34.1 nM | IC50 (MV-4-11; Homo sapiens, MV4-11, 192 h): > 3.75 µM | IC50 (MOLM14; Homo sapiens, MOLM-14, 192 h): > 3.75 µM

CN(C)CCNC(=O)c1ccc(NC2CC3(CCN(c4ncnc5sc(CC(F)(F)F)cc45)C3)C2)cc1 (racemic) [Compound 73]
IC50 (menin): 2.5 nM | IC50 (MV-4-11; Homo sapiens, MV4-11, 192 h): 0.3 µM | IC50 (MOLM14; Homo sapiens, MOLM-14, 192 h): 1.21 µM

CN1CCC(c2cc(NC3CC4(CCN(c5ncnc6sc(CC(F)(F)F)cc56)C4)C3)ccc2C#N)CC1 (racemic) [Compound 78]
IC50 (menin): 2.9 nM | IC50 (MV-4-11; Homo sapiens, MV4-11, 192 h): 0.33 µM | IC50 (MOLM14; Homo sapiens, MOLM-14, 192 h): 0.48 µM

CC(C)(NC1CCC2(C1)CN(c1ncnc3sc(CC(F)(F)F)cc13)C2)c1ccccc1 (racemic) [Compound 276]
IC50 (menin): 97.3 nM | IC50 (MV-4-11; Homo sapiens, MV4-11, 192 h): 2.43 µM | IC50 (MOLM14; Homo sapiens, MOLM-14, 192 h): > 3.75 µM

CNC(=O)c1ccc(NC2CC3(CCN(c4ncnc5sc(CC(F)(F)F)cc45)C3)C2)c(F)c1 (single isomer, unassigned) [Compound 67]
IC50 (menin): 1 nM | IC50 (MV-4-11; Homo sapiens, MV4-11, 192 h): 0.14 µM | IC50 (MOLM14; Homo sapiens, MOLM-14, 192 h): 0.62 µM

CNC(=O)c1ccc(NC2CC3(CCN(c4ncnc5sc(CC(F)(F)F)cc45)C3)C2)nc1 (single isomer, unassigned) [Compound 72]
IC50 (menin): 2.8 nM | IC50 (MV-4-11; Homo sapiens, MV4-11, 192 h): 0.23 µM | IC50 (MOLM14; Homo sapiens, MOLM-14, 192 h): 0.5 µM

CN(C)CCNC(=O)c1ccc(NC2CC3(CCN(c4ncnc5sc(CC(F)(F)F)cc45)C3)C2)cc1 (single isomer, unassigned) [Compound 75]
IC50 (menin): 1.3 nM | IC50 (MV-4-11; Homo sapiens, MV4-11, 192 h): 0.05 µM | IC50 (MOLM14): 0.46 µM

CN1CCC(c2cc(NC3CC4(CCN(c5ncnc6sc(CC(F)(F)F)cc56)C4)C3)ccc2C#N)CC1 (single isomer, unassigned) [Compound 79]
IC50 (menin): 14.2 nM | IC50 (MV-4-11; Homo sapiens, MV4-11, 192 h): 0.17 µM | IC50 (MOLM14; Homo sapiens, MOLM-14, 192 h): 0.59 µM

O=C(NCCO)c1ccc(NC2CC3(CCN(c4ncnc5sc(CC(F)(F)F)cc45)C3)C2)cc1 (single isomer, unassigned) [Compound 84]
IC50 (menin): 2.3 nM | IC50 (MV-4-11; Homo sapiens, MV4-11, 192 h): 0.06 µM | IC50 (MOLM14; Homo sapiens, MOLM-14, 192 h): 0.56 µM

FC(F)(F)Cc1cc2c(N3CCC4(CC(Nc5cccnc5)C4)C3)ncnc2s1 (single isomer, unassigned) [Compound 153]
IC50 (menin): 34.7 nM | IC50 (MV-4-11; Homo sapiens, MV4-11, 192 h): 2.47 µM | IC50 (MOLM14; Homo sapiens, MOLM-14, 192 h): > 3.75 µM

CNC(=O)c1ccc(NC2CC3(CCN(c4ncnc5sc(CC(F)(F)F)cc45)C3)C2)c(F)c1F (single isomer, unassigned) [Compound 226]
IC50 (menin): 7.8 nM | IC50 (MV-4-11; Homo sapiens, MV4-11, 192 h): 0.43 µM | IC50 (MOLM14; Homo sapiens, MOLM-14, 192 h): 2.83 µM

CN1CC=C(c2cc(NC3CC4(CCN(c5ncnc6sc(CC(F)(F)F)cc56)C4)C3)ccc2C(C)(C#N)C#N)CC1 (single isomer, unassigned) [Compound 247]
IC50 (menin): 30.2 nM | IC50 (MV-4-11): 0.97 µM | IC50 (MOLM14): 0.71 µM

CN(C)CCNC(=O)c1ccc(NC2CC3(CCN(c4ncnc5sc(CC(F)(F)F)cc45)C3)C2)nc1 (single isomer, unassigned) [Compound 254]
IC50 (menin): 2.8 nM | IC50 (MV-4-11; Homo sapiens, MV4-11, 192 h): 0.17 µM | IC50 (MOLM14): 1.5 µM
